Experimental data taken from the METLIN SMRT retention time set (Domingo-Almenara et al. 2019).

Assay: gradient 5% acetonitrile 3 min, to 50% in 2 min, to 85% in 15 min, held 3 min, 100 µL/min
Conditions: column: Zorbax Extend-C18 2.1 x 50 mm; eluents: water / acetonitrile, 0.1% formic acid
Outline: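 Retention time was recorded from adduct peaks, which were picked computationally and each inspected manually. Pure standards ran in mixtures of ~100 molecules on HPLC coupled to a quadrupole time-of-flight mass spectrometer, in positive and negative ionization mode, through a Zorbax Extend-C18 column (2.1 × 50 mm, 1.8 μm) at 100 μL/min. Eluents were water and acetonitrile, each with 0.1% formic acid.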

RP-LC retention time [s]	Structure (SMILES)
681	Cc1cc(C)c(CNC(=O)C2CCN(c3cncnc3N3CCOCC3)CC2)c(C)c1
1100	Cc1cc2nn(CC(=O)Nc3cc(F)ccc3F)c(=O)n2c(Nc2ccc(F)c(C)c2)n1
600	COc1ccc(CNC(=S)Nc2ccc3nc(N4CCN(C)CC4)cc(C)c3c2)c(OC)c1
655	CCN1C(=O)C(CC(=O)NC(C)C)Sc2ncccc21 (stereo not drawn)
768	N#CC1=C(N)Oc2c(ccc3cccnc23)C1c1ccccc1 (stereo not drawn)
894	Cc1cc(C)cc(N2CCC(NC(=O)c3ccc(Br)o3)C2=O)c1 (stereo not drawn)
725	CCCNC(=O)C1c2ccccc2CCN1C(=O)C1CC1 (stereo not drawn)
908	Cc1nn(CC(=O)NCCc2c[nH]c3ccc(Cl)cc23)c(=O)c2c(C)n(-c3ccccc3)nc12
918	Cc1ccc(-c2csc(Nc3ccccn3)n2)cc1
749	CCc1ccc(CNC(=O)C2CCN(Cc3cn(C)c4ccc(OC)cc34)CC2)cc1
515	CC(=O)Nc1nnc(C2=COCCO2)o1
794	Cc1ccc(-c2cn3c(CC(=O)NCc4ccc5c(c4)OCO5)csc3n2)cc1C
645	O=C(NCCN1CCCC1)C1CCN(c2nccnc2Sc2ccccc2)CC1
781	CN(C)c1nc(Nc2ccc(F)cc2)c2cnn(C)c2n1
1150	Cc1ccc(-n2c(=O)c3sccc3n(Cc3nc(-c4ccc(C)c(C)c4)no3)c2=O)cc1
608	O=C(COc1ccc(F)cc1)Nc1nc(CN2CCc3ccccc3C2)cs1
781	Cc1noc(-c2ccc(OC3CN(C(=O)c4ccoc4)C3)cc2)n1
1000	CCCC(=O)N1CCN(c2nc3ccccc3n(CC(C)C)c2=O)CC1
916	Cc1nc(-c2ccccc2OC2CN(S(=O)(=O)Cc3ccccc3)C2)no1
851	CCc1cccc(NC(=O)Cn2nc3c(N(C)C4CCCCC4)nccn3c2=O)c1
977	Cc1ccc(Cn2nc3ccc(S(=O)(=O)N4CCOCC4)cn3c2=O)cc1
663	CCn1nc(C)c(CNC(=O)Nc2cccc(C(=O)OC)c2)c1C

RP-LC retention time [s]	Structure (SMILES)
887	O=C(O)C1CCN(S(=O)(=O)c2ccc(Cl)c(-c3nnc(-c4ccccc4)o3)c2)CC1
779	COc1ccc(C(=O)N2CCN(S(=O)(=O)c3cc4c5c(c3)CCC(=O)N5CCC4)CC2)cc1
908	CCN(CC)c1nc2ccsc2c(=O)n1CC(=O)NCc1ccc(Cl)cc1
1330	Cc1cccc(-c2noc(CSc3nc4cc5c(cc4c(=O)n3Cc3ccccc3)OCO5)n2)c1
867	CC(C)n1c(N2CCN(C(=O)c3ccc(F)c(F)c3)CC2)cc(=O)n(C(C)C)c1=O
852	COc1cccc(CNC(=O)c2ccc3c(c2)N(C)C(=O)c2ccccc2O3)c1
785	O=S(=O)(NCc1ccccc1C(F)(F)F)c1c[nH]c2ncccc12
924	CC(=O)N1c2ccc(S(=O)(=O)N3CCCCC3)cc2CC1C(=O)NCCc1ccc(Cl)cc1 (stereo not drawn)
600	CCOC(=O)C1CCN(Cc2nc(-c3ccc(N4CCCCCC4)nc3)no2)CC1
630	COC[C@@H]1CN(S(=O)(=O)c2cccc(C#N)c2)C[C@H]1c1ccncc1
930	COc1cccc(CNC(=O)C2(C)CCN(C(=O)Nc3ccc(C)c(Cl)c3)CC2)c1
975	CCc1ccc(NC(=O)c2c(C)sc3ncnc(N4CCCC4)c23)cc1
720	COc1cc(NC(=O)C2CCCN(c3ncnc4c3nc3n4CCCCC3)C2)cc(OC)c1OC (stereo not drawn)
585	COCC(=O)NC(Cc1ccccc1)c1nnc(N2CCN(C)CC2)o1 (stereo not drawn)
804	O=C(NCC(F)(F)F)C(=O)NCC1(c2cccs2)CCCCC1
655	Fc1ccc(-c2ccc(CNCc3ccccn3)o2)cc1
735	Cc1cccn2c(Nc3ccc4c(c3)OCCO4)c(-c3ccc(N(C)C)cc3)nc12
886	O=C(NC1CC1)[C@@H]1C[C@H](Oc2ccccc2)CN1C(=O)CCC1CCCC1
666	Cc1oc2c(c1C(=O)NCc1ccc(F)c(F)c1)C1=NC(C)(C)CN1C=N2
648	CCCNC(=O)CCNc1c(-c2ccc(F)cc2)nc2cnccn12
769	O=C(CC(=O)c1ccccc1)Nc1ccc2c(c1)OCCO2
967	Cc1ccc(CNC(=O)C2(C)CCCN(C(=O)Nc3cccc(C)c3)C2)cc1 (stereo not drawn)

RP-LC retention time [s]	Structure (SMILES)
1130	Cc1cccc(N2CCN(c3ccc4nnc(CCc5nc(-c6ccc(F)cc6)no5)n4n3)CC2)c1
743	CCCN(CC1CCOC1)C(=O)c1ccc(F)cc1F (stereo not drawn)
981	CCOC(=O)c1cnc2c(-c3ccc(F)cc3)c(COC)nn2c1N
785	CN1c2ccc(Cl)cc2C(=O)NC12CCN(C(=O)NCc1ccc(F)cc1)CC2
910	Cc1ccc(F)cc1S(=O)(=O)N1CCC(n2c(-c3ccco3)nc3cccnc32)C1 (stereo not drawn)
836	O=C(NC1CC1)c1ccc(OCC2CCN(C(=O)c3ccccc3C(F)(F)F)CC2)cc1
615	COc1ccc(-c2nn3c(N4CCN(c5ccccn5)CC4)cc(C)nc3c2C)cc1
667	O=C(Nc1ccc2c(c1)OCCO2)C1CCN(c2cc(N3CCCCC3)ncn2)CC1
610	CN(C)c1ncccc1C(=O)Nc1ccc(F)cc1
630	COc1cccc(S(=O)(=O)N2CCC(Cc3nncn3C)C2)c1 (stereo not drawn)
737	Cc1ccc2c(Nc3cccc(C(C)C)c3)c(C(=O)N3CCC(C)CC3)cnc2n1
870	CN(C)c1cc(N2CCCC(NC(=O)Cc3ccsc3)C2)ncn1 (stereo not drawn)
642	O=C(NCCn1ncccc1=O)Nc1ccccc1C(F)(F)F
1040	Cc1nc(C(=O)Nc2ccc(F)cc2Cl)c(C)o1
606	N#Cc1ccc(CN2CCC3(CC2)CN(C2CCC2)CC3CO)cc1 (stereo not drawn)
803	COC(=O)c1ccccc1NC(=O)C1CN(C(=O)c2ccc(F)c(F)c2)C1
564	Cc1cc(NCc2ccccn2)nc(-n2cc([N+](=O)[O-])cn2)n1
1060	O=C(Nc1nc(-c2ccccc2)c(-c2ccccc2)s1)C1=COCCO1
986	CS(=O)(=O)N1CCC(C(=O)Nc2ccc(F)c(Cl)c2)Oc2ccccc21 (stereo not drawn)
587	Cc1nnc(-c2coc(S(=O)(=O)N3CCN(CC(C)C)CC3)c2)o1
879	Cc1nn(C(C)C(=O)NC2CCCCC2)c(=O)c2nn(-c3ccccc3)c(C)c12 (stereo not drawn)
679	CCN(CC)S(=O)(=O)c1ccc2c(c1)cc(C(=O)NCCCN1CCCCC1C)n2C (stereo not drawn)

RP-LC retention time [s]	Structure (SMILES)
625	O=C(Nc1ccc2nc(N3CCN(C4CCCCC4)CC3)cc(C(=O)O)c2c1)c1ccc(F)cc1
972	CCOc1ccc(NC(=O)C2CCN(S(C)(=O)=O)c3cc(C)ccc3O2)cc1 (stereo not drawn)
636	CC1=CC2=C(C=O)C(=O)[C@](C)(O)[C@@H](O)C2=CO1
874	Cc1nc(-c2noc(-c3cccc(F)c3)n2)cn1CC(=O)Nc1ccc(F)cc1
911	Cc1ccc(Cl)cc1NC(=O)N1CCC(n2cnc3c(C)cccc3c2=O)CC1
666	CN(Cc1cnc2nc(N)nc(N)c2n1)c1ccc(C(=O)NC(CCC(=O)O)C(=O)O)cc1 (stereo not drawn)
949	COC(=O)c1nnn(-c2cc(C)cc(C)c2)c1C(=O)OC
590	CCn1cnc2c1CN(S(=O)(=O)c1cccc(C#N)c1)CC2
712	O=C(NC1CCCN(c2ccc(=O)[nH]n2)C1)C1(S(=O)(=O)c2ccc(Cl)cc2)CC1 (stereo not drawn)
681	CC(C)Cn1c(=O)c(-c2ccc(C(=O)NCc3ccncc3)cc2)nc2ccccc21
1160	O=c1c2sccc2n(Cc2nc(-c3ccc(F)cc3)no2)c(=O)n1Cc1ccccc1Cl
1080	O=C(OCC12CC3CC(CC(C3)C1)C2)c1ccc(NCc2cc(O)ccc2O)cc1
792	CN1C(=O)c2cc(C(=O)NCc3ccccc3F)nn2CC1(C)C(=O)NCc1ccc(F)cc1 (stereo not drawn)
1020	Cc1cccc(-c2nc(C)c(CCNC(=O)C(=O)Nc3ccc([N+](=O)[O-])cc3)s2)c1
661	CC1(C(=O)NC2CCCCCC2)Cn2c(cc3occc32)C(=O)N1Cc1cccnc1 (stereo not drawn)
646	O=C(Cn1c(=O)nc(-c2ccccc2)c2cc(Cl)ccc21)N1CCN(c2ccccn2)CC1
930	COc1ccc(C2CC(=O)N(c3ccc(F)c(C)c3)C(=O)C2)cc1
678	O=C1CCCc2cc(S(=O)(=O)N3CCC(C(=O)NCc4ccco4)CC3)ccc2N1
642	CCn1nc(N2CCCC(NS(=O)(=O)c3c(C)nn(C)c3C)C2)ccc1=O (stereo not drawn)
693	CCN1CCC(N(Cc2cccs2)C(=O)Nc2cccc(Br)c2)CC1
1150	Cn1nccc1-c1cccc(-c2noc(-c3cccc(F)c3)n2)c1

Structure (SMILES)	RP-LC retention time [s]
COc1ccc2c(c1)C1(CCN(C(=O)c3cccc(C)c3)C1)C(=O)N2C (stereo not drawn)	823
